From patent US6043248A, “Alpha-substituted pyrimidine-thioalkyl and alkylether compounds as inhibitors of viral reverse transcriptase” (priority 1997, dated 2000)
Where “and” joins values, the source holds several entries; their conditions need not be identical. Equal entries are not always repeated. Structures can show the parent of a compound that is named as a salt.

How the values were obtained:
[1] = target: T1, viral reverse transcriptase (Wild Type) (Human immunodeficiency virus type 1 group M subtype B, UniProt P04585); assay: inhibition of viral reverse transcriptase (Wild Type), cell free assay; format: biochemical; conditions: for IC50: 30 minutes at 37° C., read-out: IC50 (Table II, Wild Type)
T1 construct: Viral reverse transcriptase (Wild Type) is found in extracts from bacterial clones; made in house; host or cells: Escherichia coli
From the text: The utility of the pyrimidine-thioalkyl and alkylether anti-AIDS compounds of Formula IA of this invention can be determined by their ability to inhibit viral reverse transcriptase, an enzyme essential for human immunodeficiency virus replication. This enzyme has characteristics which differentiate it from other known cellular polymerases and it is a unique enzyme which is not found in uninfected cells. Viral reverse transcriptase (Wild Type) is found in extracts from bacterial clones prepared according to the procedure described in AIDS Virus Reverse Transcriptase defined by high level expression in Escherichia coli, EMBO J. 6:3133-3137 (1987). P236L viral reverse transcriptase is obtained by PNAS 90: 4713-4717 (1993). Inhibition of this enzyme is determined in a cell free assay which measures the level of radioactive precursors incorporated into DNA. Extracts prepared according to the procedure of Science, 1125-1129 (1981) are incubated in a mixture of inhibitor, 20 mM dithiothreitol, 60 mM sodium chloride, 0.05% NP-40, 10 mM magnesium chloride, 50 mM Tris pH 8.3, 10 μM [^35 S]-labeled deoxynuleoside-5'-triphosphate, 10 μg/ml RNA template (poly rC or poly rG) and 5 μg/ml DNA primer (oligo dG or oligo dT) for 30 minutes at 37° C. Incorporation of radio-labeled percursor is determined by spotting aliquots of the reaction mixture on DE81 paper, washing the papers to remove unincorporated percursor, drying and determining counts. The results (IC50 means the concentration, in μM of drug, required to inhibit the reverse transcriptase activity (P236L and Wild Type) to the extent of 50%) of various assay(s) are combined and reported as % inhibition and/or IC50 (calculated) in Table I (P236L) and Table II (Wild Type).

[2] = target: T2, P236L viral reverse transcriptase (Human immunodeficiency virus type 1 group M subtype B, UniProt P04585, P823L); assay: inhibition of viral reverse transcriptase (P236L), cell free assay; format: biochemical; conditions: IC50 (Table I, P236L), 30 minutes at 37° C.
T2 construct: P236L viral reverse transcriptase is obtained by PNAS 90: 4713-4717 (1993); made in house
Method in brief: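 E. coli-expressed wild-type or P236L RT extracts incubated with inhibitor 30 min at 37 °C in Tris pH 8.3 with MgCl₂, NaCl, DTT, NP-40, 10 μM [35S]-dNTP, poly rC/rG template and oligo dG/dT primer. Incorporated label counted on DE81 paper; reported as % inhibition and/or IC50.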

| Structure (SMILES) | IC50 [1] | IC50 [2] | inhibition at 50 µM [1] | inhibition at 1 µM ([1]; @ 1 μM) |
| --- | --- | --- | --- | --- |
| Cc1cc2cc(C(C)Sc3nc(N)cc(C(F)(F)F)n3)ncc2o1 (centres unmarked) [Example 243, 4-Amino-6-trifluoromethyl-2-(1-(2-methylfuro[2,3c]pyridine-5-yl)ethyl)thio-pyrimidine] | 495 nM | 188 nM |  |  |
| CC(Sc1nc(N)cc(Cl)n1)c1cc2ccoc2cn1 (centres unmarked) [Example 238, 4-Amino-6-chloro-2-(1-(furo[2,3-c]pyridin-5-yl)ethyl)thio-pyrimidine] | 7 nM | 11 nM |  |  |
| CC(Sc1nc(N)cc(Cl)n1)c1cc(C(C)(C)C)ccn1 (centres unmarked) [Example 210, 4-Amino-6-chloro-2-(1-(4-(1,1-dimethyl)ethyl-2-pyridyl)ethyl)thio-pyrimidine] | 80 nM | 99 nM |  |  |
| CC(Sc1nc(N)cc(Cl)n1)c1cc(C2CCCC2)ccn1 (centres unmarked) [Example 253] | 203 nM | 200 nM |  |  |
| CCC(C)c1ccnc(C(C)Sc2nc(N)cc(Cl)n2)c1 (centres unmarked) [Example 256, 4-amino-6-chloro-2-(1-(4-(1-methylpropyl)-2-pyridyl)-ethyl)thio-pyrimidine] | 93 nM | 100 nM |  |  |
| Cc1coc2cnc([C@H](C)Sc3nc(N)cc(Cl)n3)cc12 [Example 290, (S)-(-)-4-Amino-6-chloro-2-(1-(3-methylfuro[2,3c]pyridine-5-yl)ethyl)thio-pyrimidine] | 25 nM | 14 nM |  |  |
| CC(C)c1ccnc(C(C)Sc2nc(N)cc(Cl)n2)c1 (centres unmarked) [Example 223, 4-Amino-6-chloro-2-(1-(4-(1-methylethyl)-2-pyridyl)ethyl)thio-pyrimidine] | 60 nM | 68 nM |  |  |
| CC(Sc1nc(N)cc(Cl)n1)c1ccccn1 (centres unmarked) [Example 211, 4-Amino-6-chloro-2-(1-(2-pyridyl)ethyl)thio-pyrimidine] | 190 nM | 46 nM |  |  |
| CC(Sc1nc(N)cc(Cl)n1)c1cc2c(C(F)(F)F)coc2cn1 (centres unmarked) [Example 294] | 233 nM | 104 nM |  |  |
| CC(Sc1nc(N)cc(Cl)n1)c1cc2ccccc2cn1 (centres unmarked) [Example 230, 4-Amino-6-chloro-2-(1-(3-isoquinolyl)ethyl)thio-pyrimidine] | 19 nM | 39 nM |  |  |
| CC(Sc1nc(N)cc(Cl)n1)c1cc2ccoc2c(Cl)n1 (centres unmarked) [Example 237, 4-Amino-6-chloro-2-(1-(7-chlorofuro[2,3c]pyridine-5-yl)ethyl)thio-pyrimidine] | 15 nM | 26 nM |  |  |
| C[C@H](Sc1nc(N)cc(Cl)n1)c1cc2ccoc2cn1 [Example 299, (S)-(-)-4-Amino-6-chloro-2-(1-(furo[2,3c]pyridin-5-yl)ethylthio)-pyrimidine] | 20 nM | 22 nM |  |  |
| Cc1coc2cnc(C(C)Sc3nc(N)cc(C(F)(F)F)n3)cc12 (centres unmarked) [Example 296, 4-Amino-6-trifluoromethyl-2-(1-(3-methyl-furo[2,3c]pyridin-5-yl)ethylthio)-pyrimidine] | 54 nM and 111 nM | 79 nM and 83 nM and 75 nM |  |  |
| CC(Sc1nc(N)cc(Cl)n1)c1ccc(OCc2ccccc2)c(Cl)n1 (centres unmarked) [Example 303, 4-amino-6-chloro-2-(((5-benzyloxy-6-chloro)-2-pyridyl)-ethyl)thio-pyrimidine] | 50000 nM | 5000 nM |  |  |
| CC(Sc1nc(N)cc(Cl)n1)c1cc2c(cn1)CCCC2 (centres unmarked) [Example 233, 4-Amino-6-chloro-2-(1-(3-(5,6,7,8-tetrahydroisoquinolyl))ethyl)thiopyrimidine] | 67 nM | 68 nM |  |  |
| COC(=O)C(Sc1nc(N)cc(Cl)n1)c1cc(C)ccn1 (centres unmarked) [Example 220, 4-Amino-6-chloro-2-(1-(4-methyl-2-pyridyl)-1-carbomethoxy-methyl)thio-pyrimidine] |  | 50000 nM | 19% |  |
| CCN(CC)C(=O)/C=C/CSc1nc(N)cc(Cl)n1 [Example 194, (E)-N,N-Diethyl-4-[(4-amino-6-chloro-2-pyrimidinyl)thio]-2-butenamide] | 49 nM | 34 nM |  |  |

| Structure (SMILES) | IC50 [1] | IC50 [2] | inhibition at 50 µM [1] | inhibition at 1 µM ([1]; @ 1 μM) |
| --- | --- | --- | --- | --- |
| CCc1coc2cnc(C(C)Sc3nc(N)cc(Cl)n3)cc12 (centres unmarked) [Example 249, 4-Amino-6-chloro-2-(1-(3-ethylfuro[2,3c]pyridine-5-yl)ethyl)thio-pyrimidine] | 23 nM | 10 nM |  |  |
| CC(Sc1nc(N)cc(Cl)n1)c1cc(N(C)C)ccn1 (centres unmarked) [Example 259] | 87 nM | 30 nM |  |  |
| CC(Sc1nc(N)cc(C(F)(F)F)n1)c1cc(C(C)(C)C)ccn1 (centres unmarked) [Example 269, 4-amino-6-trifluoromethyl-2-(1-(4-(1-dimethylethyl)-2-pyridyl)-ethyl)thio-pyrimidine] | 441 nM | 200 nM |  |  |
| Nc1cc(C(F)(F)F)nc(SCc2ccc3ccccc3c2)n1 [Example 270, 4-amino-6-trifluoromethyl-2-(2-naphthylmethyl)thio-pyrimidine] | 434 nM | 290 nM |  |  |
| Cc1cc2cc(C(C)Sc3nc(N)cc(C(F)(F)F)n3)nc(Cl)c2o1 (centres unmarked) [Example 241, 4-Amino-6-trifluoromethyl-2-(1-(7-chloro-2-methylfuro[2,3c]pyridine-5-yl)ethyl)thio-pyrimidine] | 82 nM | 334 nM |  |  |
| Clc1nc(SCc2ccc3ccccc3c2)nc2c1CCN2 [Example 281, 4-chloro-2-(naphthylmethyl)thio-5,6-dihydro-7H-pyrrolo[2,3-d]pyrimidine] |  | 1000 nM | 56% |  |
| CC(Sc1nc(N)cc(Cl)n1)c1cc(C#N)ccn1 (centres unmarked) [Example 214, 4-Amino-6-chloro-2-(1-(4-cyano-2-pyridyl)ethyl)thio-pyrimidine] | 487 nM | 178 nM |  |  |
| CC(Sc1nc(N)cc(C(F)(F)F)n1)c1cc2ccoc2cn1 (centres unmarked) [Example 239, 4-Amino-6-trifluoromethyl-2-(1-(furo[2,3-c]pyridin-5-yl)ethyl)thio-pyrimidine] | 50 nM | 88 nM |  |  |
| CC(Sc1nc(N)cc(Cl)n1)c1cc2c(cn1)OCC2(C)C (centres unmarked) [Example 248, 4-Amino-6-chloro-2-(1-(3,3-dimethyl-2,3-dihydrofuro[2,3c]pyridine-5-yl)ethyl)thio-pyrimidine] | 72 nM | 18 nM |  |  |
| Nc1cc(Cl)nc(SC/C=C/C(=O)N2CCOCC2)n1 [Example 198, (E)-4-[4-[(4-amino-6-chloro-2-pyrimidinyl)thio]-1-oxo-2-butenyl]morpholine] |  | 10000 nM | 69% |  |
| C=Cc1cc(C(C)Sc2nc(N)cc(Cl)n2)nc(Cl)c1OC (centres unmarked) [Example 244, 4-Amino-6-chloro-2-(1-(6-chloro-5-methoxy-4-vinyl-2-pyridyl)ethyl)thio-pyrimidine] | 141 nM | 186 nM |  |  |
| CCC(CC)c1ccnc(C(C)Sc2nc(N)cc(Cl)n2)c1 (centres unmarked) [Example 261, 4-amino-6-chloro-2-(1-(4-(1-ethylpropyl)-2-pyridyl)-ethyl)thio-pyrimidine] | 59 nM | 70 nM |  |  |
| CCc1cc(C(C)Sc2nc(N)cc(Cl)n2)ncc1OC (centres unmarked) [Example 245, 4-Amino-6-chloro-2-(1-(4-ethyl-5-methoxy-2-pyridyl)ethyl)thio-pyrimidine] | 343 nM | 191 nM |  |  |
| CCN(CC)C(=O)/C=C/C(C)Sc1nc(N)cc(Cl)n1 (centres unmarked) [Example 207, (E)-N,N-Diethyl-4-[(4-amino-6-chloro-2-pyrimidinyl)thio]-2-pentenamide] | 49 nM | 68 nM |  |  |
| CC(Sc1nc(N)cc(Cl)n1)c1cc(C2CC2)ccn1 (centres unmarked) [Example 255] |  | 100 nM |  | 96% |
| Cc1ccnc(C(C)Sc2nc(N)cc(Cl)n2)c1 (centres unmarked) [Example 215, 4-Amino-6-chloro-2-(1-(4-methyl-2-pyridyl)ethyl)thio-pyrimidine hydrochloride] | 17 nM | 33 nM |  |  |
| CN1CCN(C(=O)/C=C/CSc2nc(N)cc(Cl)n2)CC1 [Example 195, (E)-4-methyl-1-[4-[(4-amino-6-chloro-2-pyrimidinyl)thio]-1-oxo-2-butenyl]piperazine] |  | 50000 nM | 40% |  |
